Experimental data published in PMC10150354, “Linearization of the Brevicidine and Laterocidine Lipopeptides Yields Analogues That Retain Full Antibacterial Activity” (Journal of Medicinal Chemistry, 2023).
Converted amounts (≈) assume the structure as drawn. Where a SMILES comes first, the peptide text is derived from it. [ ]: non-standard residue; d: D form. The star is where a group is joined. Octanoyl(7-Me) = CC(C)CCCCCC(=O)*; dOrn = NCCC[C@@H](N)C(=O)O; Orn = NCCC[C@H](N)C(=O)O

Assays:
A. baumannii ATCC 17961 = assay type: cell-based, Acinetobacter baumannii; conditions: microbroth dilution per CLSI, MHB, 18 h at 37 °C, visual inspection, three technical replicates
Method: (§1) Linear laterocidine (LL-OH, 4) and linear brevicidine (LB-OH, 5) were first synthesized by Fmoc SPPS, starting from 2-chlorotrityl (2-CT) chloride resin. The antibacterial activity of these peptides was then compared to brevicidine (1) and laterocidine (2) using minimum inhibitory concentration (MIC)/microbroth dilution assays (Table 1). The MICs of all peptides were determined against a panel of Gram-negative and Gram-positive ESKAPE pathogens. Additionally, a strain of E. coli carrying the mcr-1 gene was included in the panel. The mcr-1 gene is a transferrable plasmid that confers resistance against colistin, a last-resort antibiotic for Gram-negative infections, by reducing the overall negative charge of lipopolysaccharide (LPS) through modification of lipid A with phosphoethanolamine. The propensity for cationic antibiotics to bind to the cell membrane is therefore reduced. This gene has been observed in more than 27 bacterial species over six continents.[26] The spread of the mcr-1 gene could render colistin ineffectual; therefore, novel antibacterials are urgently required to overcome this form of resistance.
(§2) All minimum inhibitory concentrations (MICs) were determined according to Clinical and Laboratory Standards Institute (CLSI) guidelines. Blood agar plates were inoculated with glycerol stocks of E. coli ATCC 25922, K. pneumoniae ATCC 13883, A. baumannii ATCC 17961, P. aeruginosa PAO1, and S. aureus USA300. The inoculated agar plates were then incubated for 16 h at 37 °C. Individually grown colonies were subsequently used to inoculate 5 mL aliquots of TSB that were then incubated at 37 °C with shaking at 220 rpm. E. coli 25922 MCR-1 glycerol stock was used to inoculate 5 mL of TSB supplemented with kanamycin that was then incubated for 16 h at 37 °C with shaking at 220 rpm. The next day the culture was diluted 100-fold in TSB supplemented with kanamycin and incubated at 37 °C with shaking at 220 rpm. In parallel, the lipopeptide antibiotics DMSO stocks to be assessed were serially diluted with MHB in polypropylene 96-well plates (50 μL in each well). Colistin sulfate stocks were dissolved in water before being diluted with MHB. Aliquots of the inoculated TSB were incubated until an OD600 of around 0.5 was reached. The bacterial suspensions were then diluted with MHB (2 × 10^5 CFU/mL) and added to the microplates containing the test compounds (50 μL to each well). The well plates were sealed with an adhesive membrane and after 18 h of incubation at 37 °C with shaking at 600 rpm, the wells were visually inspected for bacterial growth. MIC values reported are based on three technical replicates and defined as the lowest concentration of the compound that prevented visible growth of bacteria.

K. pneumoniae ATCC 13883 = assay type: cell-based, Klebsiella pneumoniae; conditions: microbroth dilution per CLSI, MHB, 18 h at 37 °C, visual inspection, three technical replicates
Method: as §1, §2

P. aeruginosa PAO1 = assay type: cell-based, Pseudomonas aeruginosa; conditions: microbroth dilution per CLSI, MHB, 18 h at 37 °C, visual inspection, three technical replicates
Method: as §1, §2

S. aureus USA300 = assay type: cell-based, Staphylococcus aureus; conditions: microbroth dilution per CLSI, MHB, 18 h at 37 °C, visual inspection, three technical replicates
Method: as §1, §2

E. coli ATCC 25922 = assay type: cell-based, Escherichia coli; conditions: for Antibacterial activity (MIC) E. coli ATCC 25922: microbroth dilution per CLSI, MHB, 18 h at 37 °C, visual inspection, three technical replicates; for MIC (µg/mL) against E. coli (ATCC 25922): (Supplement 2)
Method: as §1, §2

E. coli (MCR-1) = assay type: cell-based, Escherichia coli; conditions: microbroth dilution per CLSI, MHB, 18 h at 37 °C, visual inspection, three technical replicates, E. coli 25922 carrying mcr-1
Method: as §1, §2

Structure (SMILES)	Antibacterial activity (MIC) A. baumannii ATCC 17961 (A. baumannii ATCC 17961)	Antibacterial activity (MIC) K. pneumoniae ATCC 13883 (K. pneumoniae ATCC 13883)	Antibacterial activity (MIC) P. aeruginosa PAO1 (P. aeruginosa PAO1)	Antibacterial activity (MIC) S. aureus USA300 (S. aureus USA300)	Antibacterial activity (MIC) E. coli ATCC 25922 (E. coli ATCC 25922)	Antibacterial activity (MIC) E. coli (MCR-1) (E. coli (MCR-1))	MIC (µg/mL) against E. coli (ATCC 25922) (E. coli ATCC 25922)
CC(C)CCCCCC(=O)N[C@H](CO)C(=O)N[C@H](Cc1ccc(O)cc1)C(=O)N[C@H](Cc1c[nH]c2ccccc12)C(=O)N[C@H](CCCN)C(=O)N[C@@H](CCCN)C(=O)NCC(=O)N[C@H](CCCN)C(=O)N[C@@H](Cc1c[nH]c2ccccc12)C(=O)N[C@H](C(=O)N[C@@H](C)C(=O)N[C@@H](CC(N)=O)C(=O)NCC(=O)NCC(N)=O)[C@@H](C)O [LL(Ala10)-NH2 (38)] ({Octanoyl(7-Me)}-[dS][dY][dW][dOrn][Orn]G[dOrn]WTANGG-NH2)	>32 µg/mL	>32 µg/mL	16 µg/mL	>32 µg/mL	>32 µg/mL	>32 µg/mL	–
CC[C@H](C)[C@H](NC(=O)[C@@H](NC(=O)[C@H](Cc1c[nH]c2ccccc12)NC(=O)[C@@H](CCCN)NC(=O)CNC(=O)[C@H](CCCN)NC(=O)[C@@H](CCCN)NC(=O)[C@@H](Cc1c[nH]c2ccccc12)NC(=O)[C@@H](Cc1ccc(O)cc1)NC(=O)[C@@H](CO)NC(=O)CCCCCC(C)C)[C@@H](C)O)C(=O)N[C@@H](C)C(=O)NCC(=O)NCC(N)=O [LL(Ala11)-NH2 (39)] ({Octanoyl(7-Me)}-[dS][dY][dW][dOrn][Orn]G[dOrn]WTIAGG-NH2)	8 µg/mL	8 µg/mL	4 µg/mL	>32 µg/mL	8 µg/mL	8 µg/mL	–
CC[C@H](C)[C@H](NC(=O)[C@@H](NC(=O)[C@H](Cc1c[nH]c2ccccc12)NC(=O)[C@@H](CCCN)NC(=O)CNC(=O)[C@H](CCCN)NC(=O)[C@@H](CCCN)NC(=O)[C@@H](Cc1c[nH]c2ccccc12)NC(=O)[C@@H](Cc1ccc(O)cc1)NC(=O)[C@@H](CO)NC(=O)CCCCCC(C)C)[C@@H](C)O)C(=O)N[C@@H](CC(N)=O)C(=O)N[C@@H](C)C(=O)NCC(N)=O [LL(Ala12)-NH2 (40)] ({Octanoyl(7-Me)}-[dS][dY][dW][dOrn][Orn]G[dOrn]WTINAG-NH2)	8 µg/mL	8 µg/mL	8 µg/mL	>32 µg/mL	8 µg/mL	8 µg/mL	–
CC[C@H](C)[C@H](NC(=O)[C@@H](NC(=O)[C@H](Cc1c[nH]c2ccccc12)NC(=O)[C@@H](CCCN)NC(=O)CNC(=O)[C@H](CCCN)NC(=O)[C@@H](CCCN)NC(=O)[C@@H](Cc1c[nH]c2ccccc12)NC(=O)[C@@H](Cc1ccc(O)cc1)NC(=O)[C@@H](CO)NC(=O)CCCCCC(C)C)[C@@H](C)O)C(=O)N[C@@H](CC(N)=O)C(=O)NCC(=O)N[C@@H](C)C(N)=O [LL(Ala13)-NH2 (41)] ({Octanoyl(7-Me)}-[dS][dY][dW][dOrn][Orn]G[dOrn]WTINGA-NH2)	8 µg/mL	8 µg/mL	4 µg/mL	>32 µg/mL	4 to 8 µg/mL	8 µg/mL	4 to 8 µg/mL
CC[C@H](C)[C@H](NC(=O)[C@H](CC(N)=O)NC(=O)[C@H](Cc1c[nH]c2ccccc12)NC(=O)[C@@H](CCCN)NC(=O)CNC(=O)[C@H](CCCN)NC(=O)[C@@H](CCCN)NC(=O)[C@@H](Cc1c[nH]c2ccccc12)NC(=O)[C@@H](Cc1ccc(O)cc1)NC(=O)[C@@H](CO)NC(=O)CCCCCC(C)C)C(=O)N[C@@H](CC(N)=O)C(=O)NCC(=O)NCC(N)=O [LL(Asn9)-NH2 (47)] ({Octanoyl(7-Me)}-[dS][dY][dW][dOrn][Orn]G[dOrn]WNINGG-NH2)	16 µg/mL	8 to 16 µg/mL	8 µg/mL	>32 µg/mL	8 µg/mL	8 µg/mL	8 µg/mL (≈ 4.89 µM)
CC[C@H](C)[C@H](NC(=O)[C@@H](NC(=O)[C@H](Cc1c[nH]c2ccccc12)NC(=O)[C@@H](CCCN)NC(=O)CNC(=O)[C@H](CCCN)NC(=O)[C@@H](CCCN)NC(=O)[C@@H](Cc1c[nH]c2ccccc12)NC(=O)[C@@H](Cc1ccc(O)cc1)NC(=O)[C@@H](C)NC(=O)CCCCCC(C)C)[C@@H](C)O)C(=O)N[C@@H](CC(N)=O)C(=O)NCC(=O)NCC(N)=O [LL(D-Ala1)-NH2 (29)] ({Octanoyl(7-Me)}-[dA][dY][dW][dOrn][Orn]G[dOrn]WTINGG-NH2)	32 µg/mL	>32 µg/mL	8 µg/mL	>32 µg/mL	8 µg/mL	8 µg/mL	–
CC[C@H](C)[C@H](NC(=O)[C@@H](NC(=O)[C@H](Cc1c[nH]c2ccccc12)NC(=O)[C@@H](CCCN)NC(=O)CNC(=O)[C@H](CCCN)NC(=O)[C@@H](CCCN)NC(=O)[C@@H](Cc1c[nH]c2ccccc12)NC(=O)[C@@H](C)NC(=O)[C@@H](CO)NC(=O)CCCCCC(C)C)[C@@H](C)O)C(=O)N[C@@H](CC(N)=O)C(=O)NCC(=O)NCC(N)=O [LL(D-Ala2)-NH2 (30)] ({Octanoyl(7-Me)}-[dS][dA][dW][dOrn][Orn]G[dOrn]WTINGG-NH2)	>32 µg/mL	>32 µg/mL	16 µg/mL	>32 µg/mL	32 µg/mL	32 µg/mL	–
CC[C@H](C)[C@H](NC(=O)[C@@H](NC(=O)[C@H](Cc1c[nH]c2ccccc12)NC(=O)[C@@H](CCCN)NC(=O)CNC(=O)[C@H](CCCN)NC(=O)[C@@H](CCCN)NC(=O)[C@@H](C)NC(=O)[C@@H](Cc1ccc(O)cc1)NC(=O)[C@@H](CO)NC(=O)CCCCCC(C)C)[C@@H](C)O)C(=O)N[C@@H](CC(N)=O)C(=O)NCC(=O)NCC(N)=O [LL(D-Ala3)-NH2 (31)] ({Octanoyl(7-Me)}-[dS][dY][dA][dOrn][Orn]G[dOrn]WTINGG-NH2)	>32 µg/mL	>32 µg/mL	>32 µg/mL	>32 µg/mL	>32 µg/mL	>32 µg/mL	–
